Assay results reported in article PMC9386913 (Arthritis Research & Therapy, 2022).

Key:
TTP = assay: Total TTP protein by capillary electrophoresis in LPS-stimulated macrophages; assay type: cell-based, human; settings: 4 h or 24 h
Protocol: Monocytes and macrophages were pre-treated for 1 h with DMSO or compound, followed by LPS stimulation (100 ng/mL) for 4 or 24 h (includes 1 h pre-treatment). Medium from the cultured macrophages was used for cytokine analysis using Magpix magnetic beads (Catalog HCYTO – 60K; Millipore Sigma, Burlington, MA). Cell pellets from the macrophage cultures were collected for western blot analysis using capillary electrophoresis to analyze the effect on TTP, with glyceraldehyde 3-phosphate dehydrogenase (GAPDH) used as the house-keeping protein in the capillary electrophoresis. Antibodies against total TTP (CST#7162 Rabbit Monoclonal antibody) and GAPDH (CST#5174 Rabbit Monoclonal antibody) were used to detect the respective proteins.

[1] = test system: LPS-stimulated whole blood; assay: Ex vivo LPS-stimulated whole blood cytokine/chemokine production (TruCulture) in dosed subjects; design: species or system human (healthy volunteers)
Protocol: Briefly, blood (1 mL) was drawn into the LPS-containing TruCulture tubes. The tubes were placed in a 37 °C block thermostat for 24 ± 1 h and then frozen at −70 °C. Media mixed with plasma were analyzed for TNF and other cytokine/chemokine levels. TNF inhibition in ex vivo LPS-stimulated blood was measured as a percentage change in TNF levels from baseline. Percentage change in other cytokines and chemokines in the ex vivo stimulation assay was also measured with respect to their baseline levels.

[2] = test system: LPS-stimulated macrophages; assay: Cytokine secretion in LPS-stimulated monocyte-derived macrophages; assay type: cell-based, human; settings: LPS 100 ng/mL 4 or 24 h
Protocol: Culture supernatants were centrifuged, and the supernatants were collected and analyzed for selected cytokines and chemokines using Milliplex Magpix assays (catalog HCYTO – 60K; Millipore Sigma, Burlington, MA). Levels of proinflammatory cytokines TNF and MCP-1 for the monocytes and macrophages were quantified using specific ELISA kits (R&D, NJ, USA) according to the manufacturer’s recommendations. Data were processed using Milliplex Analyst, and significance was calculated using the one-way analysis of variance (ANOVA) with Dunnett’s post-test algorithms in GraphPad Prism version 5.01. PBMCs were isolated from buffy coat using the Ficoll gradient method. Monocytes were isolated using the […] Technologies Inc. kit (catalog number 19058; Vancouver, BC, Canada). […] Macrophages were then plated and allowed to acclimate for 24 h. […] Medium from the cultured macrophages was used for cytokine analysis using Magpix magnetic beads (Catalog HCYTO – 60K; Millipore Sigma, Burlington, MA). Cell pellets from the macrophage cultures were collected for western blot analysis using capillary electrophoresis to analyze the effect on TTP, with glyceraldehyde 3-phosphate dehydrogenase (GAPDH) used as the house-keeping protein in the capillary electrophoresis. Antibodies against total TTP (CST#7162 Rabbit Monoclonal antibody) and GAPDH (CST#5174 Rabbit Monoclonal antibody) were used to detect the respective proteins.

[3] = 150-mg dose level cohort, day 5
[4] = continuous dosing at 120 and 150 mg

With `CCOCc1cnc(Cl)nc1Oc1ccc2c(ccc3sc4c(c32)NC[C@@H](C)NC4=O)n1` [CC-99677] the “Total TTP levels (surrogate for TTP phosphorylation state)” value (TTP) was “dose-dependent reduction in total TTP levels”, the “Onset of reduction of TNF production” value ([1]; 60-, 120-, and 150-mg dose cohorts) was “reduced as early as day 2” and the “Maximal TNF inhibition (percentage change from baseline)” value ([1]; 150-mg dose cohort) was 70%. For the same compound, the “TNF inhibition maintained during the dosing period” value ([1]; 150-mg dose cohort, 14 days) was “approximately 70%”, the “Maximal inhibition of IL-6” value [1, 3] was 50% and the “Maximal inhibition of MIP-1α” value [1, 3] was 50%. The “TNF inhibition, ex vivo LPS-stimulated blood” value ([1]; all doses > 10 mg) was “inhibited TNF at all doses > 10 mg, and this inhibition was sustained until day 14”, the MIP-1α production [1, 4] was “inhibited with continuous dosing” and the MIP-1β production [1, 4] was “inhibited with continuous dosing”. For the same compound, the TNF secretion [2] was “strong concentration-dependent inhibition”, the IL-1β secretion ([2]; more potent than in monocytes) was “concentration-dependent inhibition” and the IL-6 secretion ([2]; more potent than in monocytes) was “concentration-dependent inhibition”.
